{"source": "ChEMBL document CHEMBL1201862", "about": "“PubChem BioAssay data set” (2004)", "key": {"[1]": {"biological_target": "T1, RNA-binding protein pos-1 (Caenorhabditis elegans, UniProt G5EF15)", "T1 sequence (G5EF15 whole entry)": "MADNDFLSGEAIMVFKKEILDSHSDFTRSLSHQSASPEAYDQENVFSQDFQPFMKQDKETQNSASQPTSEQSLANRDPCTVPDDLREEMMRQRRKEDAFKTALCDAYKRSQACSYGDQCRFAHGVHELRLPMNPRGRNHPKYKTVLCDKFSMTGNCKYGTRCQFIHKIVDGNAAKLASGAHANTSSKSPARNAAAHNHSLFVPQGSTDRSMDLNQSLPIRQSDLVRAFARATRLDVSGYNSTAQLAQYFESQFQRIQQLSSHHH", "experiment": "inhibitors of POS-1/mex-3 RNA binding, dose response, biochemical, fluorescence polarization (AID 1964);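 further: purified POS-1 fused to maltose binding protein made in E. coli; potency of compounds blocking POS-1 binding to fluorescent RNA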"}, "[2]": {"system": "Streptococcus sp. 'group A'", "experiment": "growth inhibition of control SK(-) GAS strain, dose response, counter-screen for streptokinase expression inhibitor project, luminescence, kanamycin, BacTiterGlo, confirmation (AID 1900)", "type": "functional, organism-based", "settings": "Streptococcus sp. 'group A'"}, "[3]": {"biological_target": "T2, Zinc finger protein mex-5 (Caenorhabditis elegans, UniProt Q9XUB2)", "T2 sequence (Q9XUB2 whole entry)": "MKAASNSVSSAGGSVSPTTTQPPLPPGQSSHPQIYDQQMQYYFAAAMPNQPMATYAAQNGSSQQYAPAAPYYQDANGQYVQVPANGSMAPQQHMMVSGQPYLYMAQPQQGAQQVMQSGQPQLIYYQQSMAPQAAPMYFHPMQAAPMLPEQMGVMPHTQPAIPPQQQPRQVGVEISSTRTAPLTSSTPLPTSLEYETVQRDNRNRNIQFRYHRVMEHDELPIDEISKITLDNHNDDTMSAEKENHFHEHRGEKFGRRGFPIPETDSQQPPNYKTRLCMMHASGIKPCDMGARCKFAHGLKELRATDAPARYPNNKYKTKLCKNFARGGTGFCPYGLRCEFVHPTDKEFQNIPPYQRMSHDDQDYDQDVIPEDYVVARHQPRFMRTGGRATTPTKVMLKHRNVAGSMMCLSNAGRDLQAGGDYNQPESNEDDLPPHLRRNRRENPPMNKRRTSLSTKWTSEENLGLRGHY", "experiment": "MEX-5/TCR-2 RNA interaction inhibitors, dose response, biochemical, C. elegans, fluorescence polarization (AID 1960)"}, "[4]": {"biological_target": "T3, Streptokinase A (Streptococcus pyogenes serotype M1, UniProt P10520)", "T3 sequence (P10520 whole entry)": "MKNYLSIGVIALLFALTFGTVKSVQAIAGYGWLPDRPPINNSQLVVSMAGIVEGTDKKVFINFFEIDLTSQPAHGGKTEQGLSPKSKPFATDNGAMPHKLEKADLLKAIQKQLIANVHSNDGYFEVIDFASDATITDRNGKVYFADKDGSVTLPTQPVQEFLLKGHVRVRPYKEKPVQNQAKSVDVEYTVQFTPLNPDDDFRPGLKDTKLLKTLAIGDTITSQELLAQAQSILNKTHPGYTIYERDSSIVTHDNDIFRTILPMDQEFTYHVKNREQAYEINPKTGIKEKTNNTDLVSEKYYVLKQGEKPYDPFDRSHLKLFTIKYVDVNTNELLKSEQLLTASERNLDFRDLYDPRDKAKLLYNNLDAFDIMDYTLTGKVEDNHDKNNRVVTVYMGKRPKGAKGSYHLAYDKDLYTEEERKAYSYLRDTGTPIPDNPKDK", "experiment": "S. pyogenes streptokinase expression inhibitors, potency, dose response, plasminogen activation absorbance, OD405 (AID 1914);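 further: secreted streptokinase activity via plasminogen activation per viability signal from cell pellet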", "type": "functional, Streptococcus pyogenes M1 GAS"}, "[5]": {"system": "Streptococcus", "experiment": "Group A Streptococcus viability loss, dose response, counter-screen for streptokinase expression inhibitor project, luminescence, BacTiterGlo (AID 1915);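 further: potency for reduction of bacterial viability or growth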", "type": "functional, organism-based", "settings": "Streptococcus"}, "[6]": {"biological_target": "Nonstructural protein 1 (Influenza A virus, UniProt Q194T2)", "sequence (Q194T2 whole entry)": "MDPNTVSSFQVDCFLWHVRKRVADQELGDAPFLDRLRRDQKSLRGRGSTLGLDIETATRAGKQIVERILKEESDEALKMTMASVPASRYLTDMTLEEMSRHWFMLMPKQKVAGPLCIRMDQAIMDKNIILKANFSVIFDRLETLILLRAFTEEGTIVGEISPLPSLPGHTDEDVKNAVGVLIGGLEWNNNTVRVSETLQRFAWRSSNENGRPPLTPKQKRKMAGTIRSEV", "type": "functional, Influenza A virus (A/California/07/2009(H1N1))"}, "[7]": {"biological_target": "T4, fMet-Leu-Phe receptor (Homo sapiens, UniProt P21462)", "T4 sequence (P21462 whole entry)": "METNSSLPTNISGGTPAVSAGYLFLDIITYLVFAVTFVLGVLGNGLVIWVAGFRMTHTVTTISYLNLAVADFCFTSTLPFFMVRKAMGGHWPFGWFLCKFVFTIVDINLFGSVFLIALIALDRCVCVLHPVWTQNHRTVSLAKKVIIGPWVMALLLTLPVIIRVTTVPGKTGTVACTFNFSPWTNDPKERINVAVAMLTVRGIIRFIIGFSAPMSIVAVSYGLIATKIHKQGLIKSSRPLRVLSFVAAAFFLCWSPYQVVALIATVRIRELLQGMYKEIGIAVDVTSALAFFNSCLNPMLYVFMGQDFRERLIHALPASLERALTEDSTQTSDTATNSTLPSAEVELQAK", "experiment": "FPR ligands, dose response (AID 519)", "type": "functional"}, "[8]": {"system": "H9c2", "experiment": "cells", "type": "functional, cell-based", "settings": "Rattus norvegicus, H9c2, Myocardium"}, "[9]": {"biological_target": "T5, Caspase-6 (Homo sapiens, UniProt P55212)", "T5 sequence (P55212 whole entry)": "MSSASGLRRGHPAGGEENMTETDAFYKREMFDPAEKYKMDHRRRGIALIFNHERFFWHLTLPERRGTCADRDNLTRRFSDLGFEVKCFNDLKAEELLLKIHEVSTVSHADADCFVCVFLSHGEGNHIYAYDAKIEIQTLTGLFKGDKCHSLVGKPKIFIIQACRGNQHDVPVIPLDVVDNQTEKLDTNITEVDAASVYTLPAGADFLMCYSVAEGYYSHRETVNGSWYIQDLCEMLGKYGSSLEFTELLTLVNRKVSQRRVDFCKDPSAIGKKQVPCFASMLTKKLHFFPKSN", "experiment": "human caspase-6 inhibitors, dose response, biochemical, VEID-R110 fluorescence, cherry-pick (AID 720632)"}, "[10]": {"biological_target": "T6, Oxysterols receptor LXR-beta (Homo sapiens, UniProt P55055)", "T6 sequence (P55055 whole entry)": "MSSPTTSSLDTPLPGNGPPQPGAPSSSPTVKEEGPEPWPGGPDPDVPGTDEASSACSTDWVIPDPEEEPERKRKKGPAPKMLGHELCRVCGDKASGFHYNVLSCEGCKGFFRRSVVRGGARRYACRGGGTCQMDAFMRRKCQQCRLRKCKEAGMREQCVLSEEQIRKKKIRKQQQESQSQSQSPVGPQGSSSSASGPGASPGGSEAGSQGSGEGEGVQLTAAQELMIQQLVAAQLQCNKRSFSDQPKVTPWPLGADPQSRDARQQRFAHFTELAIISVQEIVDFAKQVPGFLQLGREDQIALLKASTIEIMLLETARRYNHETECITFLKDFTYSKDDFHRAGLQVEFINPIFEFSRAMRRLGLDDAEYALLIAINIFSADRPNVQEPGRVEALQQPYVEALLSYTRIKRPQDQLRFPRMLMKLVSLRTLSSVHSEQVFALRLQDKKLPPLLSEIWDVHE", "type": "functional, cell-based"}, "[11]": {"experiment": "T. cruzi growth inhibition in host cells, dose response, cell-based, plate reader, dry powder, set 2 (AID 652275)", "type": "functional"}, "[12]": {"experiment": "P. falciparum Dd2 growth inhibitors, dose response, SYBR Green, cherry-picked samples (AID 1159567)", "type": "functional, cell-based"}, "[13]": {"biological_target": "Cytochrome P450 2C19 (Homo sapiens, UniProt P33261)", "sequence (P33261 whole entry)": "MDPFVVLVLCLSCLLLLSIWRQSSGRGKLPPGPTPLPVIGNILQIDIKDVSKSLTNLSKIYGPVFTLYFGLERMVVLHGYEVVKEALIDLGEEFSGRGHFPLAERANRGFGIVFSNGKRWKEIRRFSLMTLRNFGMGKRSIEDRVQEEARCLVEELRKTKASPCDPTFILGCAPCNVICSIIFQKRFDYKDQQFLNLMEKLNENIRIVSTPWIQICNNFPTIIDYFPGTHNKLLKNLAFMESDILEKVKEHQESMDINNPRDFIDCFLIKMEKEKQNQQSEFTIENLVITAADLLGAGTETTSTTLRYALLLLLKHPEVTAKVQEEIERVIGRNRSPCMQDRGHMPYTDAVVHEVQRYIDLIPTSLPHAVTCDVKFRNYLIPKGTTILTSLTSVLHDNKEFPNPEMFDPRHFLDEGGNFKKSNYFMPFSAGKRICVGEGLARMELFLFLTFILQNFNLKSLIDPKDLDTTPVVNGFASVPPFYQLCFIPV", "experiment": "Cytochrome panel assay with activity outcomes. Panel member name: p450-cyp2c19 Compounds with AC50 equal or less than 10 uM are considered active", "type": "functional", "settings": "read-out: AC50"}, "[14]": {"biological_target": "Cytochrome P450 2C9 (Homo sapiens, UniProt P11712)", "sequence (P11712 whole entry)": "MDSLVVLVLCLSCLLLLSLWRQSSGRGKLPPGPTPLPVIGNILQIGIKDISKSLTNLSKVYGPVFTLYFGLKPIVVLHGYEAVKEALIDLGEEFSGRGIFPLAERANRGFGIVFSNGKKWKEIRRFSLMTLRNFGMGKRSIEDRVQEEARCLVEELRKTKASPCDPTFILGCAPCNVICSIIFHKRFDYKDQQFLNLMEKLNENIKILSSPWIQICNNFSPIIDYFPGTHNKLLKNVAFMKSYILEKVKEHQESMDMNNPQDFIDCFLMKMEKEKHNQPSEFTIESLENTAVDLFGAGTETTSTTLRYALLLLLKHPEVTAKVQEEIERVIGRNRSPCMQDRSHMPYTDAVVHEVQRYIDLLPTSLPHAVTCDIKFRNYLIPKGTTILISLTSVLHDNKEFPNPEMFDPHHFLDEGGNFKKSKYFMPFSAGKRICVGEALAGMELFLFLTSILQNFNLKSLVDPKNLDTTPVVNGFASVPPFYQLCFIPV"}, "[15]": {"experiment": "NIH-3T3 fibroblast cytotoxicity, dose response, cytotoxicity control, cell-based, fluorescence, Alamar Blue, secondary assay (AID 2327);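 further: NIH-3T3 mouse fibroblasts cultured with fluconazole at 8 µg/mL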", "type": "functional"}, "[16]": {"biological_target": "T7, Aminopeptidase N (Plasmodium falciparum FcB1/Columbia, UniProt O96935)", "T7 sequence (O96935 whole entry)": "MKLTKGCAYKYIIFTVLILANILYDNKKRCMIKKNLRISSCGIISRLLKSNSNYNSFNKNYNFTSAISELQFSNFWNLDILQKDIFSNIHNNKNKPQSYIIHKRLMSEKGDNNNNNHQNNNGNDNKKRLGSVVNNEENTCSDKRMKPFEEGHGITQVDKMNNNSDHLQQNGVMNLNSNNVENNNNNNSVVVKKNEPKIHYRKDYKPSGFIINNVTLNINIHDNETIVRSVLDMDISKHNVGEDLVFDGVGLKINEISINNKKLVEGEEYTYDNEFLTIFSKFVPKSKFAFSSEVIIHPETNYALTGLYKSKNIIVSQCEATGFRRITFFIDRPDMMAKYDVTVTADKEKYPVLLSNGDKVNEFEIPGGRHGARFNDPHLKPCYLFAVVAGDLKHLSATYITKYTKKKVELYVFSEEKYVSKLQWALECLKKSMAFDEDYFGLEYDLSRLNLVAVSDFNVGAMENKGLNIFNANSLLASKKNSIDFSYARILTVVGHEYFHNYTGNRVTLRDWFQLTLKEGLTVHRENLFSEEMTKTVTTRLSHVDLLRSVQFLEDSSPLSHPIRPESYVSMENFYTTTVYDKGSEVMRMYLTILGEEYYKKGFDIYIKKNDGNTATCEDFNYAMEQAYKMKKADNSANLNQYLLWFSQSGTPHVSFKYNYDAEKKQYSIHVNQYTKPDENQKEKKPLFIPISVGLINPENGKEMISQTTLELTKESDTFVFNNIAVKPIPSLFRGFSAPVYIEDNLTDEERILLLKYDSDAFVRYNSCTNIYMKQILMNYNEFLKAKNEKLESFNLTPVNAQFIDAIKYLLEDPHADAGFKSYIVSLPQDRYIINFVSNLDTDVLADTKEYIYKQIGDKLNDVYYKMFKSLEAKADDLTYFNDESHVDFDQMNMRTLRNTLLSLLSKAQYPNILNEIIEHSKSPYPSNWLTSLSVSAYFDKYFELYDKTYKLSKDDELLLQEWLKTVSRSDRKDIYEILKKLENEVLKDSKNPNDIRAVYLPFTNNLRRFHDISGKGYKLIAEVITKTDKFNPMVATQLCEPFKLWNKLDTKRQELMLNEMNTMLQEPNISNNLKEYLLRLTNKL", "experiment": "P. falciparum M1AAP inhibitors, biochemical, fluorogenic H-Leu-NHMec substrate, 1536-well (AID 1445)", "design": "species or system Plasmodium falciparum 3D7, 3D7"}, "[17]": {"experiment": "cells", "type": "functional, cell-based"}, "[18]": {"experiment": "C. albicans growth with fluconazole, confirmation, fluorescence, retest (AID 2467)", "type": "functional, cell-based"}, "[19]": {"experiment": "cells", "type": "functional, cell-based", "remark": "listed apart in the source"}, "[20]": {"biological_target": "Albumin (Bos taurus, UniProt P02769)", "sequence (P02769 whole entry)": "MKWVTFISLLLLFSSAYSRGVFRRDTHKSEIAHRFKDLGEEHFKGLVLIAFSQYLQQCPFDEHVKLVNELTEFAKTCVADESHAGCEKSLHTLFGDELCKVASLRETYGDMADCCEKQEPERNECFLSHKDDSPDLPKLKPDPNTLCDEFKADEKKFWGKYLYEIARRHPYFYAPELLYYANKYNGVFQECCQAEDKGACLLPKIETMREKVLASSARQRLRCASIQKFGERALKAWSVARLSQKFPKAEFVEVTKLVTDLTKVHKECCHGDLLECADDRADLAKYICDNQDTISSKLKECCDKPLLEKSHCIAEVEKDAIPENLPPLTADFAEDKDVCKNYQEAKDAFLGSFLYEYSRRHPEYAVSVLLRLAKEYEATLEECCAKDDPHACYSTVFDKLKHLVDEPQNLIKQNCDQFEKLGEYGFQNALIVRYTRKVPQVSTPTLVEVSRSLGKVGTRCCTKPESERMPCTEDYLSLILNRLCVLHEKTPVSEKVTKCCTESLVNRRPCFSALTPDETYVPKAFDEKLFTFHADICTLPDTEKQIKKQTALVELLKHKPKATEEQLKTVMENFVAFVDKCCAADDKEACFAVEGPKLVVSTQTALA", "experiment": "Counterscreen for inhibitors of T-cell receptor (TCR)-CD3 interaction: Fluorescence-based biochemical high throughput dose response assay to identify inhibitors of T-cell receptor (TCR)-CD3 interaction using a TAMRA-labeled BSA probe.", "type": "functional"}}, "note": "The source made the active and inactive calls."}
{"smiles": "CCN(CC)c1ccc(/C=N/C(C#N)=C(\\N)C#N)cc1", "values": [{"measurement": "EC50", "setting": "[1]", "result": "281 µM (active)"}, {"measurement": "EC50", "setting": "[2]", "result": "> 150 µM (not active)"}, {"measurement": "EC50", "setting": "[3]", "result": "114 µM (inconclusive)"}, {"measurement": "EC50", "setting": "[4]", "result": "> 150 µM (not active)"}, {"measurement": "EC50", "setting": "[5]", "result": "> 150 µM (not active)"}, {"measurement": "IC50", "setting": "[6]", "result": "> 100 µM (active)"}, {"measurement": "Ki", "setting": "[7]", "result": "> 66.7 µM (inactive)"}]}
{"smiles": "CCOC(=O)C1=C(COC(=O)c2ccc([N+](=O)[O-])o2)NC(=O)NC1C", "note": "(configuration not stated)", "values": [{"measurement": "IC50", "setting": "[8]", "result": "> 79 µM (inactive)"}, {"measurement": "AC50", "setting": "[9]", "result": "30 µM (active)"}]}
{"smiles": "C=CCN1C(=O)[C@@H](CC(=O)N2CCSCC2)[C@]2(C(=O)OC)CCCCC=C12", "values": [{"measurement": "EC50", "setting": "[10]", "result": "> 67.5 µM (inactive)"}]}
{"smiles": "CCOC(=O)N1CCN(C(C(=O)NC2CCCC2)C(C)C)CC1", "note": "(configuration not stated)", "values": [{"measurement": "AC50", "setting": "[9]", "result": "12.2 µM (active)"}]}
{"smiles": "CC(C)(C)[S+]([O-])N1Cc2cc(C(=O)NCc3ccc4c(c3)OCO4)nc(-c3cccc(C#CCC4CCCC4)c3)c2[C@@H]1CCO", "note": "(some centres not stated)", "values": [{"measurement": "AC50", "setting": "[11]", "result": "883 nM (active)"}, {"measurement": "AC50", "setting": "[12]", "result": "3.54 µM (active)"}]}
{"smiles": "CCOC(=O)Cc1cc(O)n2nc(C)c(-c3ccccc3)c2n1", "values": [{"measurement": "AC50", "setting": "[13]", "result": "22.4 µM (inconclusive)"}, {"measurement": "Ki", "setting": "[7]", "result": "36.8 µM (inactive)"}, {"measurement": "AC50", "setting": "[14]", "result": "39.8 µM (inconclusive)"}]}
{"smiles": "O=C(N/N=C/c1cc(Br)ccc1O)c1cccc(N2CCCC2=O)c1", "values": [{"measurement": "EC50", "setting": "[15]", "result": "15.4 µM (inconclusive)"}, {"measurement": "IC50", "setting": "[16]", "result": "38.3 µM (active)"}, {"measurement": "EC50", "setting": "[17]", "result": "7.74 µM (active)"}, {"measurement": "EC50", "setting": "[18]", "result": "2.33 µM (active)"}, {"measurement": "EC50", "setting": "[19]", "result": "> 350 µM (not active)"}, {"measurement": "IC50", "setting": "[20]", "result": "> 94.1 µM (inactive)"}]}
